Experimental data published in patent publication US12157746B2, “Tetrahydro-1H-pyrazino[2,1-a]isoindolylquinoline compounds for the treatment of autoimmune disease” (F. HOFFMANN-LA ROCHE AG, priority 2018, dated 2024).

Target: T1, hERG K+ channel (Homo sapiens, UniProt Q12809)
T1 construct: expressed in transfected cells; host or cells: CHO (Chinese hamster ovary) cells, CHOhERG
Experiment: hERG channel inhibition assay
Format: cell-based
Conditions: patch-clamp (voltage-clamp, whole-cell); for IC50: CHO cells expressing hERG; for IC20: human, CHO cells stably expressing hERG
Method: hERG Channel Inhibition Assay
The hERG K^+ channels were cloned in humans and stably expressed in a CHO (Chinese hamster ovary) cell line. CHOhERG cells were used for patch-clamp (voltage-clamp, whole-cell) experiments. Cells were stimulated by a voltage pattern to activate hERG channels and conduct IKhERG currents (rapid delayed outward rectifier potassium current of the hERG channel). After the cells were stabilized for a few minutes, the amplitude and kinetics of IKhERG were recorded at a stimulation frequency of 0.1 Hz (6 bpm). Thereafter, the test compound was added to the preparation at increasing concentrations. For each concentration, an attempt was made to reach a steady-state effect, usually, this was achieved within 3-10 min at which time the next highest concentration was applied. The amplitude and kinetics of IKhERG are recorded in each concentration of the drug which were compared to the control values (taken as 100%). (references: Redfem W S, Carlsson L, Davis A S, Lynch W G, MacKenzie I, Palethorpe S, Siegl P K, Strang I, Sullivan A T, Wallis R, Camm A J, Hammond T G. 2003; Relationships between preclinical cardiac electrophysiology, clinical QT interval prolongation and torsade de pointes for a broad range of drugs: evidence for a provisional safety margin in drug development. Cardiovasc. Res. 58:32-45, Sanguinetti M C, Tristani-Firouzi M. 2006; hERG potassium channels and cardiac arrhythmia. Nature 440:463-469, Webster R, Leishman D, Walker D. 2002; Towards a drug concentration effect relationship for QT prolongation and torsades de pointes. Curr. Opin. Drug Discov. Devel. 5:116-26).

T1 sequence (Q12809 whole entry): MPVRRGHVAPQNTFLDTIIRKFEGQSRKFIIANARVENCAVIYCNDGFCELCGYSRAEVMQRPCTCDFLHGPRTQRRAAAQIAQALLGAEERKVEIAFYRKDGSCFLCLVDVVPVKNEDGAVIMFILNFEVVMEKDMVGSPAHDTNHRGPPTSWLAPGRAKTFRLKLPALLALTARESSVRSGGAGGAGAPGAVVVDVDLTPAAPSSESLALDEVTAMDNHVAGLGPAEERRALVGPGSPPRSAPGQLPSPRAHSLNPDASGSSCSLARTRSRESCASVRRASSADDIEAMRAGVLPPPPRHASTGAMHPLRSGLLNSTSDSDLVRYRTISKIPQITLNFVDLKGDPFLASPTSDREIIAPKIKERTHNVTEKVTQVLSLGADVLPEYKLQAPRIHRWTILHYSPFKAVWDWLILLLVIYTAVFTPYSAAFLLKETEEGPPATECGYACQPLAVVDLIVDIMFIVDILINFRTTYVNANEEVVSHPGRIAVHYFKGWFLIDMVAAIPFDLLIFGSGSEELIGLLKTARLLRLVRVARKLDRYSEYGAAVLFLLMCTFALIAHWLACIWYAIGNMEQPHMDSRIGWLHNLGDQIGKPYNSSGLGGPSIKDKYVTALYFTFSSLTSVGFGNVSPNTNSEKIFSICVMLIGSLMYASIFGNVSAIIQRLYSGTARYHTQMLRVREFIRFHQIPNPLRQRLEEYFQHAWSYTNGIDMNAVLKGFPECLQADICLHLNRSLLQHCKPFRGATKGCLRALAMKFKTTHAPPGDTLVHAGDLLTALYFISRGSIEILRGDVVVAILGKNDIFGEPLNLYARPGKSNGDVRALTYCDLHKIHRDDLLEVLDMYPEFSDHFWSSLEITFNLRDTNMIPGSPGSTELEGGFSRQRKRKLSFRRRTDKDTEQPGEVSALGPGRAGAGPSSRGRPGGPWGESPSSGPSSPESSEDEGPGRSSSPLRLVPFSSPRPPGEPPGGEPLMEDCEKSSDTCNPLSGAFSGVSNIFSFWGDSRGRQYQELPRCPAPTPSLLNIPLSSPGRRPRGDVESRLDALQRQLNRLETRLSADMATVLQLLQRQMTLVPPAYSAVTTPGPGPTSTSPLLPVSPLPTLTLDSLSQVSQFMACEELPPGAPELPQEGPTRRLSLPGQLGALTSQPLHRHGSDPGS

Compound | IC50 [µM] | IC20 [µM]
C[C@@H]1CN(c2ccc(C#N)c3ncccc23)C[C@@H]2c3ccc(N4CC5(CNC5)C4)cc3CN12 [Example 36, 5-[(4R,10bS)-8-(2,6-diazaspiro[3.3]heptan-2-yl)-4-methyl-3,4,6,10b-tetrahydro-1H-pyrazino[2,1-a]isoindol-2-yl]quinoline-8-carbonitrile] | > 20 | > 10
C[C@@H]1CN(c2ccc(C#N)c3ncccc23)C[C@@H]2c3ccc(N4CCNC[C@H](O)C4)cc3CN12 [Example 53A, 5-[(4R,10bS)-8-[(6S)-6-hydroxy-1,4-diazepan-1-yl]-4-methyl-3,4,6,10b-tetrahydro-1H-pyrazino[2,1-a]isoindol-2-yl]quinoline-8-carbonitrile] | > 20 | 6.6
C[C@@H]1CN(c2ccc(C#N)c3ncccc23)C[C@@H]2c3ccc(N4C[C@H](N)[C@@](C)(O)C4)cc3CN12 [Example 45B, 5-[(4R,10bS)-8-[(3S,4S)-4-amino-3-hydroxy-3-methyl-pyrrolidin-1-yl]-4-methyl-3,4,6,10b-tetrahydro-1H-pyrazino[2,1-a]isoindol-2-yl]quinoline-8-carbonitrile] | > 20 | > 10
C[C@@H]1CN(c2ccc(C#N)c3ncccc23)C[C@@H]2c3ccc(N4CCN[C@H](CO)C4)cc3CN12 [Example 12, 5-[(4R,10bS)-8-[(3S)-3-(hydroxymethyl)piperazin-1-yl]-4-methyl-3,4,6,10b-tetrahydro-1H-pyrazino[2,1-a]isoindol-2-yl]quinoline-8-carbonitrile] | > 20 | > 10
C[C@@H]1CN(c2ccc(C#N)c3ncccc23)C[C@@H]2c3ccc(N4CC5(CNCCO5)C4)cc3CN12 [Example 35, 5-[(4R,10bS)-4-methyl-8-(5-oxa-2,8-diazaspiro[3.5]nonan-2-yl)-3,4,6,10b-tetrahydro-1H-pyrazino[2,1-a]isoindol-2-yl]quinoline-8-carbonitrile] | > 20 | > 10
C[C@@H]1CN(c2ccc(C#N)c3ncccc23)C[C@@H]2c3ccc(N4CCOCC(N)C4)cc3CN12 (stereo partly drawn) [Example 54, 5-[(4R,10bS)-8-(6-amino-1,4-oxazepan-4-yl)-4-methyl-3,4,6,10b-tetrahydro-1H-pyrazino[2,1-a]isoindol-2-yl]quinoline-8-carbonitrile] | > 20 | > 10
C[C@@H]1CN(c2ccc(C#N)c3ncccc23)C[C@@H]2c3ccc(NC4CNCCOC4)cc3CN12 (stereo partly drawn) [Example 56, 5-[(4R,10bS)-4-methyl-8-(1,4-oxazepan-6-ylamino)-3,4,6,10b-tetrahydro-1H-pyrazino[2,1-a]isoindol-2-yl]quinoline-8-carbonitrile] | > 20 | > 10
C[C@@H]1CN(c2ccc(C#N)c3ncccc23)C[C@@H]2c3ccc(NC4CNC4)cc3CN12 [Example 28, 5-[(4R,10S)-8-(azetidin-3-ylamino)-4-methyl-3,4,6,10b-tetrahydro-1H-pyrazino[2,1-a]isoindol-2-yl]quinoline-8-carbonitrile] | > 20 | > 10
C[C@@H]1CN(c2ccc(C#N)c3ncccc23)C[C@@H]2c3ccc(N4C[C@@H](N)[C@H](O)C4)cc3CN12 (single isomer, unassigned) [Example 40B] | > 20 | > 10
C[C@@H]1CN(c2ccc(C#N)c3ncccc23)C[C@@H]2c3ccc(N4CCNCC(O)C4)cc3CN12 (stereo partly drawn) [Example 15, 5-[(4R,10bS)-8-(6-hydroxy-1,4-diazepan-1-yl)-4-methyl-3,4,6,10b-tetrahydro-1H-pyrazino[2,1-a]isoindol-2-yl]quinoline-8-carbonitrile] | > 20 | > 10
C[C@@H]1CN(c2ccc(C#N)c3ncccc23)C[C@@H]2c3ccc(N4C[C@@H](N)[C@](C)(O)C4)cc3CN12 [Example 45A, 5-[(4R,10bS)-8-[(3R,4R)-4-amino-3-hydroxy-3-methyl-pyrrolidin-1-yl]-4-methyl-3,4,6,10b-tetrahydro-1H-pyrazino[2,1-a]isoindol-2-yl]quinoline-8-carbonitrile] | > 20 | 7.4
CO[C@H]1CN(c2ccc3c(c2)CN2[C@H](C)CN(c4ccc(C#N)c5ncccc45)C[C@H]32)C[C@@H]1N (relative stereo) [Example 16, 5-[(4R,10bS)-8-[trans-3-amino-4-methoxy-pyrrolidin-1-yl]-4-methyl-3,4,6,10b-tetrahydro-1H-pyrazino[2,1-a]isoindol-2-yl]quinoline-8-carbonitrile] | > 20 | > 10
C[C@@H]1CN(c2ccc(C#N)c3ncccc23)CC2c3ccc(N4C[C@H](N)[C@@H](O)C4)cc3CN21 (relative stereo) [Example 21, 5-[(4R,10bS)-8-[trans-3-amino-4-hydroxy-pyrrolidin-1-yl]-4-methyl-3,4,6,10b-tetrahydro-1H-pyrazino[2,1-a]isoindol-2-yl]quinoline-8-carbonitrile] | > 20 | > 10
C[C@@H]1CN(c2ccc(C#N)c3ncccc23)C[C@@H]2c3ccc(N4CC5(CN(C)C5)C4)cc3CN12 [Example 38, 5-[(4R,10bS)-4-methyl-8-(6-methyl-2,6-diazaspiro[3.3]heptan-2-yl)-3,4,6,10b-tetrahydro-1H-pyrazino[2,1-a]isoindol-2-yl]quinoline-8-carbonitrile] | > 20 | > 10
C[C@@H]1CN(c2ccc(C#N)c3ncccc23)C[C@@H]2c3ccc(N4CC5(CCN5)C4)cc3CN12 [Example 37, 5-[(4R,10bS)-8-(1,6-diazaspiro[3.3]heptan-6-yl)-4-methyl-3,4,6,10b-tetrahydro-1H-pyrazino[2,1-a]isoindol-2-yl]quinoline-8-carbonitrile] | > 20 | 8.6
COC12CNCC1CN(c1ccc3c(c1)CN1[C@H](C)CN(c4ccc(C#N)c5ncccc45)C[C@H]31)C2 (stereo partly drawn) [Example 41, 5-[(4R,10bS)-8-(3a-methoxy-1,2,3,4,6,6a-hexahydropyrrolo[3,4-c]pyrrol-5-yl)-4-methyl-3,4,6,10b-tetrahydro-1H-pyrazino[2,1-a]isoindol-2-yl]quinoline-8-carbonitrile] | > 20 | > 10
CN[C@@H]1CN(c2ccc3c(c2)CN2[C@H](C)CN(c4ccc(C#N)c5ncccc45)C[C@H]32)C[C@H]1O [Example 43, 5-[(4R,10bS)-4-methyl-8-[(3R,4R)-3-hydroxy-4-(methylamino)pyrrolidin-1-yl]-3,4,6,10b-tetrahydro-1H-pyrazino[2,1-a]isoindol-2-yl]quinoline-8-carbonitrile] | > 20 | 5.2
C[C@@H]1CN(c2ccc(C#N)c3ncccc23)C[C@@H]2c3ccc(N4C[C@H]5NCCO[C@@H]5C4)cc3CN12 [Example 44, 5-[(4R,10bS)-4-methyl-8-[(4aR,7aR)-3,4,4a,5,7,7a-hexahydro-2H-pyrrolo[3,4-b][1,4]oxazin-6-yl]-3,4,6,10b-tetrahydro-1H-pyrazino[2,1-a]isoindol-2-yl]quinoline-8-carbonitrile] | > 20 | 6.4
CN[C@H]1CN(c2ccc3c(c2)CN2[C@H](C)CN(c4ccc(C#N)c5ncccc45)C[C@H]32)C[C@@H]1O [Example 42, 5-[(4R,10bS)-8-[(3S,4S)-3-hydroxy-4-(methylamino)pyrrolidin-1-yl]-4-methyl-3,4,6,10b-tetrahydro-1H-pyrazino[2,1-a]isoindol-2-yl]quinoline-8-carbonitrile] | > 20 | 6.7
C[C@@H]1CN(c2ccc(C#N)c3ncccc23)C[C@@H]2c3ccc(N4CC(N)C4)cc3CN12 [Example 22, 5-[(4R,10bS)-8-(3-aminoazetidin-1-yl)-4-methyl-3,4,6,10b-tetrahydro-1H-pyrazino[2,1-a]isoindol-2-yl]quinoline-8-carbonitrile] | > 20 | 5
C[C@@H]1CN(c2ccc(C#N)c3ncccc23)C[C@@H]2c3ccc(NCCN(C)C)cc3CN12 [Example 26, 5-[(4R,10bS)-8-[2-(dimethylamino)ethylamino]-4-methyl-3,4,6,10b-tetrahydro-1H-pyrazino[2,1-a]isoindol-2-yl]quinoline-8-carbonitrile] | > 20 | 5
